Experimental data as given in ChEMBL document CHEMBL1149774, “Synthesis of N-(5,7-diamino-3-phenyl-quinoxalin-2-yl)-3,4,5-substituted anilines and N-[4[(5,7-diamino-3-phenylquinoxalin-2-yl)amino]benzoyl]-l-glutamic acid diethyl ester: evaluation of in vitro anti-cancer and anti-folate activities” (Eur J Med Chem, 2008).

Experiments:
Assay type in all cases: functional
HOP-62 = test: Growth inhibition of human HOP62 cells after 48 hrs by SRB staining method; conditions: HOP-62, 48 h
NCI-H23 = test: Growth inhibition of human NCI-H23 cells after 48 hrs by SRB staining method; conditions: NCI-H23, 48 h
NCI-H322M = test: Growth inhibition of human NCI-H322M cells after 48 hrs by SRB staining method
NCI-H460 = test: Growth inhibition of human NCI-H460 cells after 48 hrs by SRB staining method; conditions: NCI-H460, 48 h
NCI-H522 = test: Growth inhibition of human NCI-H522 cells after 48 hrs by SRB staining method; conditions: NCI-H522, 48 h
HCT-116 = test: Growth inhibition of human HCT116 cells after 48 hrs by SRB staining method; conditions: HCT-116, 48 h
HCT-15 = test: Growth inhibition of human HCT15 cells after 48 hrs by SRB staining method; conditions: HCT-15, 48 h
KM12 = test: Growth inhibition of human KM12 cells after 48 hrs by SRB staining method; conditions: KM12, 48 h
SF-295 = test: Growth inhibition of human SF295 cells after 48 hrs by SRB staining method; conditions: SF-295, 48 h
U-251 = test: Growth inhibition of human U251 cells after 48 hrs by SRB staining method; conditions: U-251, 48 h
LOX IMVI = test: Growth inhibition of human LOX IMVI cells after 48 hrs by SRB staining method
Malme-3M = test: Growth inhibition of human MALME-3M cells after 48 hrs by SRB staining method
SK-MEL-2 = test: Growth inhibition of human SK-MEL-2 cells after 48 hrs by SRB staining method; conditions: SK-MEL-2, 48 h
SK-MEL-28 = test: Growth inhibition of human SK-MEL-28 cells after 48 hrs by SRB staining method; conditions: SK-MEL-28, 48 h
SK-MEL-5 = test: Growth inhibition of human SK-MEL-5 cells after 48 hrs by SRB staining method; conditions: SK-MEL-5, 48 h
OVCAR-3 = test: Growth inhibition of human OVCAR-3 cells after 48 hrs by SRB staining method; conditions: OVCAR-3, 48 h
OVCAR-4 = test: Growth inhibition of human OVCAR4 cells after 48 hrs by SRB staining method; conditions: OVCAR-4, 48 h
OVCAR-5 = test: Growth inhibition of human OVCAR5 cells after 48 hrs by SRB staining method; conditions: OVCAR-5, 48 h
OVCAR-8 = test: Growth inhibition of human OVCAR8 cells after 48 hrs by SRB staining method; conditions: OVCAR-8, 48 h
SK-OV-3 = test: Growth inhibition of human SKOV3 cells after 48 hrs by SRB staining method; conditions: SK-OV-3, 48 h
786-0 = test: Growth inhibition of human 786-0 cells after 48 hrs by SRB staining method; conditions: 786-0, 48 h
A498 = test: Growth inhibition of human A498 cells after 48 hrs by SRB staining method; conditions: A498, 48 h
SN12C = test: Growth inhibition of human SN12C cells after 48 hrs by SRB staining method
UO-31 = test: Growth inhibition of human UO31 cells after 48 hrs by SRB staining method; conditions: UO-31, 48 h
PC-3 = test: Growth inhibition of human PC3 cells after 48 hrs by SRB staining method; conditions: PC-3, 48 h
MCF7 = test: Growth inhibition of human MCF7 cells after 48 hrs by SRB staining method; conditions: MCF7, 48 h
MDA-MB-231 = test: Growth inhibition of human MDA-MB-231 cells after 48 hrs by SRB staining method; conditions: MDA-MB-231, 48 h
BT-549 = test: Growth inhibition of human BT549 cells after 48 hrs by SRB staining method; conditions: BT-549, 48 h
A549 = test: Growth inhibition of human A549 cells after 48 hrs by SRB staining method; conditions: A549, 48 h
SW-620 = test: Growth inhibition of human SW620 cells after 48 hrs by SRB staining method; conditions: SW-620, 48 h
RPMI-8226 = test: Growth inhibition of human RPMI8226 cells after 48 hrs by SRB staining method; conditions: RPMI-8226, 48 h
SR = test: Growth inhibition of human SR cells after 48 hrs by SRB staining method
EKVX = test: Growth inhibition of human EKVX cells after 48 hrs by SRB staining method
[1] = read-out: pLC50 (the source's name) (converted)

COc1ccc(Nc2nc3cc(N)cc(N)c3nc2-c2ccccc2)cc1OC
GI50 (HOP-62): 34.7 µM | LC50 (HOP-62): > 100 µM | TGI (HOP-62; read-out: pTGI (converted)): > 100 µM | GI50 (NCI-H23): 26.3 µM | LC50 (NCI-H23): > 100 µM | TGI (NCI-H23; read-out: pTGI (converted)): 79.4 µM | GI50 (NCI-H322M): > 100 µM | LC50 (NCI-H322M): > 100 µM | TGI (NCI-H322M; read-out: pTGI (converted)): 25.1 µM | GI50 (NCI-H460): 20.4 µM | LC50 (concentration killing 50% of cells) (NCI-H460): > 100 µM | TGI (NCI-H460; read-out: pTGI (converted)): > 100 µM | GI50 (NCI-H522): 28.8 µM | LC50 (NCI-H522): > 100 µM | TGI (NCI-H522; read-out: pTGI (converted)): > 100 µM | GI50 (HCT-116): 14.8 µM | LC50 (HCT-116): 58.9 µM | TGI (HCT-116; read-out: pTGI (converted)): 29.5 µM | GI50 (HCT-15): 28.8 µM | LC50 (HCT-15): > 100 µM | TGI (HCT-15; read-out: pTGI (converted)): > 100 µM | GI50 (KM12): 14.8 µM | LC50 (KM12): 69.2 µM | TGI (KM12; read-out: pTGI (converted)): 32.4 µM | GI50 (SF-295): 17 µM | LC50 (SF-295): > 100 µM | TGI (SF-295; read-out: pTGI (converted)): 45.7 µM | GI50 (U-251): 25.7 µM | LC50 (50% lethal concentration) (U-251): > 100 µM | TGI (U-251; read-out: pTGI (converted)): > 100 µM | GI50 (LOX IMVI): 25.7 µM | LC50 (LOX IMVI): > 100 µM | TGI (LOX IMVI; read-out: pTGI (converted)): 72.4 µM | GI50 (Malme-3M): 15.8 µM | LC50 (Malme-3M): 81.3 µM | TGI (Malme-3M; read-out: pTGI (converted)): 35.5 µM | GI50 (SK-MEL-2): 26.9 µM | LC50 (SK-MEL-2): > 100 µM | TGI (SK-MEL-2; read-out: pTGI (converted)): > 100 µM | GI50 (SK-MEL-28): 21.4 µM | CC50 (SK-MEL-28; [1]): > 100 µM | TGI (SK-MEL-28; read-out: pTGI (converted)): 50.1 µM | GI50 (SK-MEL-5): 12.3 µM | LC50 (SK-MEL-5): 53.7 µM | TGI (SK-MEL-5; read-out: pTGI (converted)): 25.7 µM | GI50 (OVCAR-3): 30.2 µM | LC50 (OVCAR-3): > 100 µM | TGI (OVCAR-3; read-out: pTGI (converted)): > 100 µM | GI50 (OVCAR-4): 18.6 µM | LC50 (OVCAR-4): > 100 µM | TGI (OVCAR-4; read-out: pTGI (converted)): 52.5 µM | GI50 (OVCAR-5): 29.5 µM | LC50 (OVCAR-5): > 100 µM | TGI (OVCAR-5; read-out: pTGI (converted)): 72.4 µM | GI50 (OVCAR-8): 33.9 µM | CC50 (OVCAR-8; [1]): > 100 µM | TGI (OVCAR-8; read-out: pTGI (converted)): > 100 µM | GI50 (SK-OV-3): 38 µM | CC50 (SK-OV-3; [1]): > 100 µM | TGI (SK-OV-3; read-out: pTGI (converted)): 87.1 µM | GI50 (786-0): 24 µM | CC50 (786-0; [1]): > 100 µM | TGI (786-0; read-out: pTGI (converted)): 91.2 µM | GI50 (A498): 11.7 µM | CC50 (A498; [1]): > 100 µM | TGI (A498; read-out: pTGI (converted)): 56.2 µM | GI50 (SN12C): 16.6 µM | CC50 (SN12C; [1]): > 100 µM | TGI (SN12C; read-out: pTGI (converted)): 43.7 µM | GI50 (UO-31): 28.2 µM | CC50 (UO-31; [1]): > 100 µM | TGI (UO-31; read-out: pTGI (converted)): > 100 µM | GI50 (PC-3): 14.1 µM | CC50 (PC-3; [1]): 93.3 µM | TGI (PC-3; read-out: pTGI (converted)): 36.3 µM | GI50 (MCF7): 20.4 µM | CC50 (MCF7; [1]): 97.7 µM | TGI (MCF7; read-out: pTGI (converted)): 44.7 µM | GI50 (MDA-MB-231): 4.9 µM | CC50 (MDA-MB-231; [1]): 46.8 µM | TGI (MDA-MB-231; read-out: pTGI (converted)): 18.6 µM | GI50 (BT-549): 25.7 µM | CC50 (BT-549; [1]): > 100 µM | TGI (BT-549; read-out: pTGI (converted)): 81.3 µM | GI50 (A549): 35.5 µM | CC50 (A549; [1]): > 100 µM | TGI (A549; read-out: pTGI (converted)): > 100 µM | GI50 (SW-620): 15.5 µM | CC50 (SW-620; [1]): 83.2 µM | TGI (SW-620; read-out: pTGI (converted)): 36.3 µM | GI50 (RPMI-8226): 7.94 µM | CC50 (RPMI-8226; [1]): 87.1 µM | TGI (RPMI-8226; read-out: pTGI (converted)): 28.2 µM | GI50 (SR): 2.69 µM | CC50 (SR; [1]): > 100 µM | TGI (SR; read-out: pTGI (converted)): 21.9 µM | GI50 (EKVX): 25.7 µM | CC50 (EKVX; [1]): > 100 µM | TGI (EKVX; read-out: pTGI (converted)): 70.8 µM
